Active and inactive are the calls of the source. No cut-off for these calls is given here.
Columns and labels:
Format in all cases: nucleic-acid assay
Nucleic Acid [1] = test: Binding affinity to CGCG site of DNA (unknown origin) at 10 uM by PAGE analysis
Nucleic Acid [2] = test: Binding affinity to d(CGG)16 of DNA (unknown origin) assessed as inhibition of Fnu4HI mediated DNA hydrolysis at 10 uM preincubated for 14 hrs followed by Fnu4HI addition and measured after 60 mins by SYBR staining-based PAGE analysis; conditions: Homo sapiens
Nucleic Acid [3] = test: Binding affinity to GC5(5) of DNA (unknown origin) assessed as inhibition of ACCII mediated DNA hydrolysis at 1 uM preincubated for 14 hrs followed by ACCII addition and measured after 120 mins by SYBR staining-based PAGE analysis; conditions: Homo sapiens, time 16.0 hrs
Nucleic Acid [4] = test: Binding affinity to d(CGG)16 of DNA (unknown origin) assessed as inhibition of Fnu4HI mediated DNA hydrolysis at 25 uM preincubated for 14 hrs followed by Fnu4HI addition and measured after 60 mins by SYBR staining-based PAGE analysis; conditions: Homo sapiens
Nucleic Acid [5] = test: Binding affinity to GC5(2) of DNA (unknown origin) assessed as inhibition of ACCII mediated DNA hydrolysis at 10 to 50 uM preincubated for 14 hrs followed by ACCII addition and measured after 120 mins by SYBR staining-based PAGE analysis; conditions: Homo sapiens; dose microM 10-50, time 14.0 hrs
Nucleic Acid [6] = test: Binding affinity to d(CGG)10 of DNA (unknown origin) assessed as inhibition of Fnu4HI mediated DNA hydrolysis at 25 uM preincubated for 14 hrs followed by Fnu4HI addition and measured after 60 mins by SYBR staining-based PAGE analysis; conditions: Homo sapiens
Nucleic Acid [7] = test: Binding affinity to GC1 of DNA (unknown origin) assessed as inhibition of ACCII mediated DNA hydrolysis at 50 uM preincubated for 14 hrs followed by ACCII addition and measured after 120 mins by SYBR staining-based PAGE analysis; conditions: Homo sapiens
Nucleic Acid [8] = test: Binding affinity to GC2(5) site of DNA (unknown origin) assessed as inhibition of ACCII mediated DNA hydrolysis at 50 uM preincubated for 14 hrs followed by ACCII addition and measured after 120 mins by SYBR staining-based PAGE analysis; conditions: Homo sapiens
Nucleic Acid [9] = test: Binding affinity to GC5(5) of DNA (unknown origin) assessed as inhibition of ACCII mediated DNA hydrolysis at 10 to 50 uM preincubated for 14 hrs followed by ACCII addition and measured after 120 mins by SYBR staining-based PAGE analysis; conditions: Homo sapiens; dose microM 10-50, time 14.0 hrs
Nucleic Acid [10] = test: Binding affinity to d(CGG) of DNA (unknown origin) assessed as inhibition of Fnu4HI mediated DNA hydrolysis preincubated for 14 hrs followed by Fnu4HI addition and measured after 60 mins by SYBR staining-based PAGE analysis; conditions: Homo sapiens

Compound | Activity (Nucleic Acid [1]) | Activity (Nucleic Acid [3]) | further results
O=C1CCCc2cc3cc(O)cc(O)c3c(O)c21 | inactive |  | 
C[C@H]1CC(=O)c2c(cc3cc(O)cc(O)c3c2O)C1 | inactive |  | 
C[C@H]1CC(=O)c2c(cc3cc(OCC(=O)NO)cc(O)c3c2O)C1 | inactive |  | Activity (Nucleic Acid [2]): Active
CCC[C@@H]1C(=O)c2c(cc3cc(OCCOCCOCCOC)cc(O)c3c2O)C[C@H]1C |  | inactive | 
CCC[C@@H]1C(=O)c2c(cc3cc(O)cc(O)c3c2O)C[C@H]1C | inactive |  | 
C[C@H]1CC(=O)c2c(cc3cc(OCCOCC(=O)NO)cc(O)c3c2O)C1 |  |  | Activity (Nucleic Acid [4]): Active; Activity (Nucleic Acid [5]): Active; Activity (Nucleic Acid [6]): Active
O=C(COCCOc1cc(O)c2c(O)c3c(cc2c1)CCCC3=O)NO |  |  | Activity (Nucleic Acid [5]): Active
CCC[C@@H]1C(=O)c2c(cc3cc(OCCOCCOCC(=O)NO)cc(O)c3c2O)C[C@H]1C | Active |  | Activity (Nucleic Acid [7]): inactive; Activity (Nucleic Acid [8]): Active; Activity (Nucleic Acid [9]): Active
C[C@H]1CC(=O)c2c(cc3cc(OCCOCCOCC(=O)NO)cc(O)c3c2O)C1 | Active | Active | Activity (Nucleic Acid [10]): inactive
CCC[C@@H]1C(=O)c2c(cc3cc(OCCOCCOCC(=O)O)cc(O)c3c2O)C[C@H]1C |  | Active | 

— ChEMBL document CHEMBL4665876, “Protection of all cleavable sites of DNA with the multiple CGCG or continuous CGG sites from the restriction enzyme, indicative of simultaneous binding of small ligands” (Bioorg Med Chem, 2020)
